Results: patent publication US7045532B2 (Millennium Pharmaceuticals, Inc., priority 1999, dated 2006)
Where two headings read alike, the source gives them in different places.

What was measured:
Carboxypeptidase A = molecular target: T1, Carboxypeptidase A (Bos taurus, UniProt P00730); assay: Carboxypeptidase A activity assay; format: biochemical; conditions: Ki class; compounds tested in 5% DMSO, 12 concentrations
T1 sequence (P00730 111-419): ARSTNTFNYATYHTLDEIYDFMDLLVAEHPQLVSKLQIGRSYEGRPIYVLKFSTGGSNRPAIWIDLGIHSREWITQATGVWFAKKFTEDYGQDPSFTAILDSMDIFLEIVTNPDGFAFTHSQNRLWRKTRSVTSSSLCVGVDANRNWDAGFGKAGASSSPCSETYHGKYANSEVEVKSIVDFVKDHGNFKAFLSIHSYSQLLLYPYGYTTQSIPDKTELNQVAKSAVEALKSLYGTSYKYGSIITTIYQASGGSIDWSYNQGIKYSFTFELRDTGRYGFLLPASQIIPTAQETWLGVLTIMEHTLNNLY
In short: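 Bovine carboxypeptidase A activity followed at 328 nm in 5% DMSO, reaction stopped with EDTA. Activity measured at 12 compound concentrations. Ki derived from apparent Ki as Ki=Kiapp/(1+[S]/Km).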

ACE (Sigma, A2580) = molecular target: T2, ACE (Sigma, A2580) (Sus scrofa, UniProt F1RRW5); assay: ACE enzymatic activity assay; format: biochemical, porcine; conditions: Ki class; compounds tested in 5% DMSO, 12 concentrations
T2 construct: ACE from porcine kidney; purchased Sigma A2580; host or cells: porcine kidney
T2 sequence (F1RRW5 34-1309): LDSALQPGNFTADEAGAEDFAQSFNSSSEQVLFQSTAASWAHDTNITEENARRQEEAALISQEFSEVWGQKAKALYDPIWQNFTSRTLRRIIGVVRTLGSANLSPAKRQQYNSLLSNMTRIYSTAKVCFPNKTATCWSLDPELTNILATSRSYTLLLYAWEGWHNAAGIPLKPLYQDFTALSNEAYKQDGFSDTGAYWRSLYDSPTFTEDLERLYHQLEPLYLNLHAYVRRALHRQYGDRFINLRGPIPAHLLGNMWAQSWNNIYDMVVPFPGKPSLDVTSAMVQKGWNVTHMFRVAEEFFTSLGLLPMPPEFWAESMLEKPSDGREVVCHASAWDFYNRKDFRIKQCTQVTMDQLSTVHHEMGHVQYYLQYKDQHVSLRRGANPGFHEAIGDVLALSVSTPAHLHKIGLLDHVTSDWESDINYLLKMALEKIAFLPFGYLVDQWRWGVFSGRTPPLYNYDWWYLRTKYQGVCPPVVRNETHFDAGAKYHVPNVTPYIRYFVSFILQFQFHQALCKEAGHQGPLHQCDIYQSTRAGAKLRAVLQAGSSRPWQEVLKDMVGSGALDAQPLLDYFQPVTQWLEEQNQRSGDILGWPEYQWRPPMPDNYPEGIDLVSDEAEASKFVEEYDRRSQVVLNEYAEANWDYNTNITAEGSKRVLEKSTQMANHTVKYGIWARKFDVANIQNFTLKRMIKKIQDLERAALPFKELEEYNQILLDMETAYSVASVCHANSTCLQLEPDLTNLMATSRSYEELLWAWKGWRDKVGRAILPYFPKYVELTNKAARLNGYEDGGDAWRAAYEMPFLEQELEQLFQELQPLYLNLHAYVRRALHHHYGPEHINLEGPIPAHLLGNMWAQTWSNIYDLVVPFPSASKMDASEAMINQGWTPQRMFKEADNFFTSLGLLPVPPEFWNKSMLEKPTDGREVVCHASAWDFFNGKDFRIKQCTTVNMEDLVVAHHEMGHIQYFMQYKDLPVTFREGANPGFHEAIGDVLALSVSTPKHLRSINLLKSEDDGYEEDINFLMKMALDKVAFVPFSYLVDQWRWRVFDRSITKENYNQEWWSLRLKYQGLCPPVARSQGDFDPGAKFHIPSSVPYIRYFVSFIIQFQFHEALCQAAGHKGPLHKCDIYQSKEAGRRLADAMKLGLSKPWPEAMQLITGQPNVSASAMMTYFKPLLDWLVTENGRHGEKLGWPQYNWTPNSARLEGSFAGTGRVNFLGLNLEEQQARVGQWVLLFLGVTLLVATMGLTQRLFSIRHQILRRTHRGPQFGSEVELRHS
In short: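 ACE (1 nM final) in 50 mM HEPES, 300 mM NaCl, 0.01% Brij-35, pH 7.5, with compound in 5% DMSO at 12 concentrations, 25 °C. Substrate cleavage run ~30 min, stopped with EDTA; fluorescence read at excitation 320 nm, emission 405 nm.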

ACE-2 [1] = molecular target: ACE-2 (Rattus norvegicus, UniProt Q5EGZ1); assay: ACE-2 Competitive Substrate Assay, rat ACE-2; format: biochemical; conditions: Ki class, compounds tested in 5% DMSO
Sequence of ACE-2 (Rattus norvegicus, UniProt Q5EGZ1) (Q5EGZ1 18-805): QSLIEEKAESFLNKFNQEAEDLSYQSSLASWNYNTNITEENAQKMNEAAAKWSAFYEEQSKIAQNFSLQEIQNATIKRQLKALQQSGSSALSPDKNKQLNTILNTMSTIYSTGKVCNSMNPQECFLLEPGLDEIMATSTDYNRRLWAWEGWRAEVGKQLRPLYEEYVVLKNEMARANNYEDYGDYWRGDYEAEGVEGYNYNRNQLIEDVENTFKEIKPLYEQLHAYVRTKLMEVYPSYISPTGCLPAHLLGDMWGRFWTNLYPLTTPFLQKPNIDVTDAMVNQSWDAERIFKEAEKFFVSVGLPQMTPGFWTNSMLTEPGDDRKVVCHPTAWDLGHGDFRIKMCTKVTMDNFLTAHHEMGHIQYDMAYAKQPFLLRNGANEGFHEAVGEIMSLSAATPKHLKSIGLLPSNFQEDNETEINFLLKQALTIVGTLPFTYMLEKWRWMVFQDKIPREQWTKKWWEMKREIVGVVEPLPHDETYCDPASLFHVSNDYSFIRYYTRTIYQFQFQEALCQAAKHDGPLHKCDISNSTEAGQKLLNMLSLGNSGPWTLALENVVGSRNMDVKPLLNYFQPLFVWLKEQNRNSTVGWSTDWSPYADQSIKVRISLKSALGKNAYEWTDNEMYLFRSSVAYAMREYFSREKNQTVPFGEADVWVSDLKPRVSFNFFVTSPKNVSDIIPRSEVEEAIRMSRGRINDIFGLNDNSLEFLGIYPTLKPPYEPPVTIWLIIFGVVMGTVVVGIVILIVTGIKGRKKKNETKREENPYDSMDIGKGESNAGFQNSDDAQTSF

ACE-2 [2] = molecular target: T3, ACE-2 (Homo sapiens, UniProt Q9BYF1); assay: ACE-2 Competitive Substrate Assay (ACS Assay); format: biochemical; conditions: Ki class, compounds tested in 5% DMSO, read-out: Human ACE-2 Activity
T3 construct: a stop codon inserted after the serine immediately preceding the transmembrane domain; made in house; host or cells: CHO K1 cells (transient transfection, purified from conditioned medium)
T3 sequence (Q9BYF1 18-740 limits assumed): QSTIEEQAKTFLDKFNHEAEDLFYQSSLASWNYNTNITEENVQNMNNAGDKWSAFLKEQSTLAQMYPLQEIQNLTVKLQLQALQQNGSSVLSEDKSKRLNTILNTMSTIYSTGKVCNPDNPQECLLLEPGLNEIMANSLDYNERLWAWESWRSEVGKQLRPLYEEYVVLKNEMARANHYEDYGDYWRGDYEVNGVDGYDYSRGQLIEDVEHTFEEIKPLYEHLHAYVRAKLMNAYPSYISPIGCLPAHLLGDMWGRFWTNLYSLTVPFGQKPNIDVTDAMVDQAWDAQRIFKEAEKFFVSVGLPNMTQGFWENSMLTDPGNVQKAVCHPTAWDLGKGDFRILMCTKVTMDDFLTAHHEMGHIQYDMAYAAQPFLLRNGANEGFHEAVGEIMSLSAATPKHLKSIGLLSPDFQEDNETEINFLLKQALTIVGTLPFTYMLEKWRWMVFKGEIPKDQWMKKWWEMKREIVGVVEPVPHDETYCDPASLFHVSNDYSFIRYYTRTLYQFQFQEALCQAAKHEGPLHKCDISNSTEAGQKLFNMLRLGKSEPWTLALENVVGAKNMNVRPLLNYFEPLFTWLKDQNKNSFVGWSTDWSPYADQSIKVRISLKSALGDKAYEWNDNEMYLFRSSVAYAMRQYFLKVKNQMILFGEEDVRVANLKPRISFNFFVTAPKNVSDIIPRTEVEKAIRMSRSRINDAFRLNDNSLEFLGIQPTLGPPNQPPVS

Structure (SMILES) | Ki (Carboxypeptidase A) | Ki (ACE (Sigma, A2580)) | Ki (ACE-2 [1]; 12 concentrations) | Ki (ACE-2 [2]; 12 concentrations) | Ki (ACE-2 [1]; 12 compound concentrations) | Ki (ACE-2 [2]; 12 compound concentrations, Ki=Kiapp/(1+[S]/Km))
CC(C)CC(N[C@H](Cc1c[nH]cn1)C(=O)O)C(=O)O (single isomer, unassigned) [BI, 2-[1-Carboxy-2-(1H-imidazol-4-yl)-ethylamino]4-methyl-pentanoic acid] | > 50 µM | > 50 µM | > 0.5 µM | > 0.5 µM | – | –
CC(C)CC(N[C@@H](Cc1c[nH]cn1)C(=O)O)C(=O)O (single isomer, unassigned) [BK, 2-[1-Carboxy-2-(1H-imidazol-4-yl)-ethylamino]4-methyl-pentanoic acid] | > 50 µM | > 50 µM | 0.1 to 0.5 µM | > 0.5 µM | – | –
CC(C)CC(N[C@@H](Cc1c[nH]cn1)C(=O)O)C(=O)O (single isomer, unassigned) [BL, 2-[1-Carboxy-2-(1H-imidazol-4-yl)-ethylamino]4-methyl-pentanoic acid] | > 50 µM | 10 to 50 µM | > 0.5 µM | – | – | –
COC(=O)[C@H](Cc1c[nH]cn1)NC(CC(C)C)C(=O)O (single isomer, unassigned) [CT, 2-[2-(1H-Imidazol-4-yl)-1-methoxycarbonyl-ethylamino]-4-methyl-pentanoic acid] | > 50 µM | > 50 µM | > 0.5 µM | > 0.5 µM | – | –
COC(=O)[C@H](Cc1c[nH]cn1)NC(CC(C)C)C(=O)O (single isomer, unassigned) [CU, 2-[2-(1H-Imidazol-4-yl)-1-methoxycarbonyl-ethylamino]-4-methyl-pentanoic acid] | > 50 µM | > 50 µM | 0.1 to 0.5 µM | – | – | –
CCCC(NC(Cc1c[nH]cn1)C(=O)O)C(=O)O (single isomer, unassigned) [DJ, 2-[1-Carboxy-2-(1H-imidazol-4-yl)-ethylamino)pentanoic acid] | > 50 µM | > 50 µM | 0.1 to 0.5 µM | > 0.5 µM | – | –
CCCC(N[C@@H](Cc1c[nH]cn1)C(=O)O)C(=O)O (single isomer, unassigned) [DK, 2-[1-Carboxy-2-(1H-imidazol-4-yl)-ethylamino)pentanoic acid] | > 50 µM | 10 to 50 µM | > 0.5 µM | > 0.5 µM | – | –
CC(C)CC(N[C@@H](Cc1cn(Cc2ccccc2)cn1)C(=O)O)C(=O)O (single isomer, unassigned) [DL, 2-[2-(1-Benzyl-1H-imidazol-4-yl)-1-carboxy-ethylamino]-4-methyl-pentanoic acid] | > 50 µM | > 50 µM | > 0.5 µM | > 0.5 µM | – | –
O=C(O)C(Cc1ccc(O)cc1)N[C@@H](Cc1c[nH]cn1)C(=O)O (single isomer, unassigned) [DN, 2-[1-Carboxy-2-(4-hydroxy-phenyl)-ethylamino]-3-(1H-imidazol-4-yl)-propionic acid] | > 50 µM | > 50 µM | > 0.5 µM | > 0.5 µM | – | –
O=C(O)C(Cc1ccc(O)cc1)N[C@@H](Cc1c[nH]cn1)C(=O)O (single isomer, unassigned) [DO, 2-[1-Carboxy-2-(4-hydroxy-phenyl)-ethylamino]-3-(1H-imidazol-4-yl)-propionicacid] | > 50 µM | 10 to 50 µM | 0.1 to 0.5 µM | – | – | –
CCCCC(N[C@@H](Cc1c[nH]cn1)C(=O)O)C(=O)O (single isomer, unassigned) [ED, 2-[1-Carboxy-2-(1H-imidazol-4-yl)-ethylamino]hexanoic acid] | > 50 µM | > 50 µM | 0.1 to 0.5 µM | > 0.5 µM | – | –
CCCCC(N[C@@H](Cc1c[nH]cn1)C(=O)O)C(=O)O (single isomer, unassigned) [EF, 2-[1-Carboxy-2-(1H-imidazol-4-yl)-ethylamino]hexanoic acid] | > 50 µM | 10 to 50 µM | > 0.5 µM | – | – | –
CC(C)CC(N[C@@H](Cc1cncn1COCc1ccccc1)C(=O)O)C(=O)O (single isomer, unassigned) [EN, 2-[2-(3-Benzyloxymethyl-3H-imidazol-4-yl)-1-carboxy-ethylamino]-4-methyl-pentanoic acid] | > 50 µM | > 50 µM | 0.1 to 0.5 µM | 0.1 to 0.5 µM | – | –
CC(C)CC(N[C@@H](Cc1cncn1COCc1ccccc1)C(=O)O)C(=O)O (single isomer, unassigned) [EO, 2-[2-(3-Benzyloxymethyl-3H-imidazol-4-yl)-1-carboxy-ethylamino]-4-methyl-pentanoic acid] | > 50 µM | > 50 µM | > 0.5 µM | > 0.5 µM | – | –
CC(C)CC(N[C@@H](Cc1c[nH]cn1)C(N)=O)C(=O)O (single isomer, unassigned) [EV, 2-[1-Carbamoyl-2-(1H-imidazol-4-yl)-ethylamino]4-methyl-pentanoic acid] | > 50 µM | > 50 µM | > 0.5 µM | > 0.5 µM | – | –
CC(C)CC(N[C@@H](Cc1c[nH]cn1)C(=O)Nc1ccc([N+](=O)[O-])cc1)C(=O)O (single isomer, unassigned) [EX, 2-[2-(1H-Imidazol-4-yl)-1-(4-nitro-phenylcarbamoyl)ethylamino]-4-methyl-pentanoic acid] | > 50 µM | > 50 µM | > 0.5 µM | > 0.5 µM | – | –
CC(C)CC(N[C@@H](Cc1cncn1COCc1ccccc1)C(N)=O)C(=O)O (single isomer, unassigned) [FC, 2-[2-(3-Benzyloxymethyl-3H-imidazol-4-yl)-1-carbamoyl-ethylamino]-4-methyl-pentanoic acid] | > 50 µM | > 50 µM | > 0.5 µM | – | – | –
CCCCC(N[C@@H](Cc1cncn1Cc1ccccc1)C(=O)O)C(=O)O (single isomer, unassigned) [FZ, 2-[2-(3-Benzyl-3H-imidazol-4-yl)-1-carboxy-ethylamino]-hexanoicacid] | > 50 µM | > 50 µM | > 0.5 µM | – | – | –
CCC(C)C(NC(Cc1cncn1Cc1ccccc1)C(=O)O)C(=O)O (single isomer, unassigned) [GD, 2-[2-(3-Benzyl-3H-imidazol-4-yl)-1-carboxy-ethylamino]-3-methyl-pentanoic acid] | > 50 µM | > 50 µM | > 0.5 µM | – | – | –
O=C(O)C(Cc1ccccc1)N[C@@H](Cc1cnc[nH]1)C(=O)O (some centres unmarked) [EQ, 2-(1-Carboxy-2-phenyl-ethylamino)-3-(1H-imidazol-4-yl)-propionicacid] | 10 to 50 µM | > 50 µM | 0.1 to 0.5 µM | – | – | –
CC(C)C[C@H](N[C@@H](Cc1ccn(Cc2ccccc2)n1)C(=O)O)C(=O)O [IN, (S,S)-2-[2-(1-benzyl-1H-pyrazol-3-yl)-1-carboxy-ethylamino]-4-methyl pentanoic acid] | – | – | – | – | < 0.1 µM | 0.1 to 0.5 µM
